According to patent publication US9487529B2, “Macrocyclic compounds as ALK, FAK and JAK2 inhibitors” (Cephalon, Inc., priority 2011, dated 2016):
Counter-ions that a name gives are not always drawn. Like-named read-outs stand apart in the source and are kept apart here.

Legend:
Format in all cases: biochemical
[1] = biological target: T1, baculovirus-expressed JAK2 (Homo sapiens, UniProt O60674); assay: JAK2 Kinase Assay (TRF detection); conditions: 0.2 μM ATP; average of two or more determinations; class symbols
T1 construct: host or cells: baculovirus expression system
T1 sequence (O60674 whole entry): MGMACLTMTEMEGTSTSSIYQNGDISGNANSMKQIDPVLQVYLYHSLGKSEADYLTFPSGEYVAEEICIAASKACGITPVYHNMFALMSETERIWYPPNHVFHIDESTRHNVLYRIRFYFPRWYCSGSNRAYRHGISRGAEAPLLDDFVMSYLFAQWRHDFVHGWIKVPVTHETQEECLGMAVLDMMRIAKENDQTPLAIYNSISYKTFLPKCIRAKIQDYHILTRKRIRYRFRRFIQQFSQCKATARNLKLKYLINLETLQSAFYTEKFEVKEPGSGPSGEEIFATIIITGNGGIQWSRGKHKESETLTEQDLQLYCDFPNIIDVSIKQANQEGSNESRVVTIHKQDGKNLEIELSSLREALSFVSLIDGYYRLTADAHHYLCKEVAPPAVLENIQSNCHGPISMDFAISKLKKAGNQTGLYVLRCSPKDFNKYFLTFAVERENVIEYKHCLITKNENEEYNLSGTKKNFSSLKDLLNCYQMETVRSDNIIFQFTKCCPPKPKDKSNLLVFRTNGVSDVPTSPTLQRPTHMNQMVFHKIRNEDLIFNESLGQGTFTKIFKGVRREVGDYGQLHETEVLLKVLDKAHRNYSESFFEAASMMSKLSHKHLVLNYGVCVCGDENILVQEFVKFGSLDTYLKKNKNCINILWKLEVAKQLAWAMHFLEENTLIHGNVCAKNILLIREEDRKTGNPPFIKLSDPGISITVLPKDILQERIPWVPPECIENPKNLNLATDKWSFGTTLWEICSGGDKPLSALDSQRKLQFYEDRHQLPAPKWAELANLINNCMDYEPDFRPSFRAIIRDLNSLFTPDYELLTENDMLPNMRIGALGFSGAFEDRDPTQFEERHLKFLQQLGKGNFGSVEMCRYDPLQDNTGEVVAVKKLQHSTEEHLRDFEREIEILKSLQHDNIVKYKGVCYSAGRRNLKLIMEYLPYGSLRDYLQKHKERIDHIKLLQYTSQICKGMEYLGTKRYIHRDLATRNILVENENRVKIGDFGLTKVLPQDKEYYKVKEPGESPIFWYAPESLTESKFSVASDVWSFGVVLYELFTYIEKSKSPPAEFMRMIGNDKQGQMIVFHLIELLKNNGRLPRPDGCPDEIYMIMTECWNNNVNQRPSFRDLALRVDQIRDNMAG
Description: Compounds were tested for their ability to inhibit the kinase activity of baculovirus-expressed JAK2 using the TRF detection system. IC50 runs were conducted in 96-well Costar high binding plates (Corning Costar #3922, Corning, N.Y.). The plates were coated first with 100 μL/well of 10 μg/mL Neutravidin (Pierce #31000, Rockford, Ill.) in TBS at 37° C. for 2 hours, followed by 100 μL/well of 1 μg/mL 15-mer peptide substrate (biotinyl-amino-hexanoyl-EQEDEPEGDYFEWLE-amide, Infinity Biotech Research and Resource, Aston, Pa.) at 37° C. for another hour. The JAK2 assay mixture (total volume=100 μL/well) consisting of 20 mM HEPES, pH 7.2, 0.2 μM ATP, 1 mM MnCl2, 0.1% BSA, and test compound (diluted in DMSO; 2.5% DMSO final in assay) was then added to the assay plate. Enzyme (15 ng/ml JAK2) was added and the reaction was allowed to proceed at room temperature for 20 minutes. Detection of the phosphorylated product was performed by adding 100 μL/well of Eu—N1 labeled PY100 antibody (PerkinElmer Life Sciences #AD0041, Boston, Mass.). Incubation at the room temperature then proceeded for 1 hour, followed by addition of 100 μl enhancement solution (PerkinElmer Life Sciences #1244-105, Boston, Mass.). The plate was gently agitated and after thirty minutes, the fluorescence of the resulting solution was measured using the PerkinElmer EnVision™ 2102 (or 2104) multi-label plate reader.
(§1) Data analysis was performed using ActivityBase (IDBS, Guilford, UK). IC50 values were calculated by plotting percent inhibition versus log10 of the concentration of compound and fitting to the nonlinear regression sigmoidal dose-response (variable slope) equation in XLFit (IDBS, Guilford, UK).

[2] = biological target: T2, human insulin receptor cytoplasmic domain (βIRCD) (Homo sapiens, UniProt P06213); assay: Insulin Receptor Kinase Assay (TRF); conditions: 20 μM ATP, read-out: IR IC50
T2 construct: human insulin receptor cytoplasmic domain (βIRCD); host or cells: baculovirus expression system
T2 sequence (P06213 980-1382 limits assumed): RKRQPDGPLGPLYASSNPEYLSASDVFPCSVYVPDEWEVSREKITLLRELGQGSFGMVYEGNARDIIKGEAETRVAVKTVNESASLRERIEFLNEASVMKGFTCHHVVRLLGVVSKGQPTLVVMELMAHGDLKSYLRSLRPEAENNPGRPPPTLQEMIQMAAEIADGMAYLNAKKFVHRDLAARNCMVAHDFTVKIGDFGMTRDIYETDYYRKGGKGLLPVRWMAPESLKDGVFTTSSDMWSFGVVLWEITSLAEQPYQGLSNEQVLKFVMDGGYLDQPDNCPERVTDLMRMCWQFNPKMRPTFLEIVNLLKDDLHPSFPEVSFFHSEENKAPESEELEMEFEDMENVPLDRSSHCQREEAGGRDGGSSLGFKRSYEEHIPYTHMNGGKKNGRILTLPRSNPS
Description: Example compounds were tested for their ability to inhibit the kinase activity of baculovirus-expressed human insulin receptor cytoplasmic domain (βIRCD) using the TRF assay as described above for ALK. Phosphorylation of the substrate, recombinant GST-PLC-γ, was detected with a europium-labeled anti-phosphotyrosine antibody and measured by TRF. Each 96-well plate (Greiner#655074) was coated with 100 μL/well of 20 μg/mL substrate solution in TBS. The IR assay mixture (total volume=100 μL/well) consisting of 20 mM HEPES (pH 7.2), 20 μM ATP, 5 mM MnCl2, 0.1% BSA, and test compound (diluted in DMSO; 2.5% DMSO final in assay) was added to the assay plates. Enzyme (20 ng/mL βIRCD) was added and the reaction was allowed to proceed at room temperature for 20 minutes. Detection of the phosphorylated product was performed by adding 100 μL/well of Eu—N1 labeled PY100 antibody (PerkinElmer#AD0160; diluted 1:10,000 in TBS-T containing 0.25% BSA). Incubation at 37° C. for 1 hour was followed by addition of 50 μL enhancement solution (Wallace#1244-105). Plates were agitated for 10 minutes and the fluorescence was measured using the PerkinElmer EnVision™ 2102 or 2104 multi-label plate reader.
as §1

[3] = biological target: T3, recombinant human FAK (Homo sapiens, UniProt Q05397); assay: FAK Enzyme Assay (TRF detection); conditions: 10 μM ATP; average of two or more determinations; class symbols
T3 construct: purchased Invitrogen PV3832; host or cells: baculovirus expression system
T3 sequence (Q05397 whole entry): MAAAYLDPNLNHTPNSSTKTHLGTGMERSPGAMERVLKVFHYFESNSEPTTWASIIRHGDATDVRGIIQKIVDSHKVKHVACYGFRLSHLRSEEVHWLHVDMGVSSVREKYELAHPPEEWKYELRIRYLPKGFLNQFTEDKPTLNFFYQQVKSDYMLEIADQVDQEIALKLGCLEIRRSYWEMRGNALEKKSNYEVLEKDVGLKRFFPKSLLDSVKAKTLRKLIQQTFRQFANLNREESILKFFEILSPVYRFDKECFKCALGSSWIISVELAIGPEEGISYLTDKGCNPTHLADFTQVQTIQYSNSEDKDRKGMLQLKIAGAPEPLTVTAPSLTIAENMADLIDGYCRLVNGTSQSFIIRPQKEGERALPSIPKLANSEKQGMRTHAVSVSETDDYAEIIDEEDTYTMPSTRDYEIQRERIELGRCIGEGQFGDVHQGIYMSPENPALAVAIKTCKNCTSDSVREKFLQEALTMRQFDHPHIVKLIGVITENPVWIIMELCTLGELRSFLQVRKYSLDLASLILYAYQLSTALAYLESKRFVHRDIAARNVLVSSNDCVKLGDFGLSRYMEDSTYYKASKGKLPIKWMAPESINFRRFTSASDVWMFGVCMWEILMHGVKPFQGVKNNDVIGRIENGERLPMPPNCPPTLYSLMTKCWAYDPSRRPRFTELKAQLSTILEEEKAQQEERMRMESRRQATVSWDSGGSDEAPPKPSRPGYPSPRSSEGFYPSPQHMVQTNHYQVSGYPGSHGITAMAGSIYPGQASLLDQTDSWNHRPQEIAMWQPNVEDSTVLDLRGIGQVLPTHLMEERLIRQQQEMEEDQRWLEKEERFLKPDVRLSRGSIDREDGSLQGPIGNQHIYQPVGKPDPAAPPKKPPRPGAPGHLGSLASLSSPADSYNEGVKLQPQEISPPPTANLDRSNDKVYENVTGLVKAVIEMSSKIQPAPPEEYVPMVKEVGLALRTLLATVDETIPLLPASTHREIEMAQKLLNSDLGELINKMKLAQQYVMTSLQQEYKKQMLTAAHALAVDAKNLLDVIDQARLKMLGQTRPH
Description: Example compounds were tested for their ability to inhibit the kinase activity of baculovirus-expressed recombinant human FAK using the TRF detection system as described above for JAK2. IC50 runs were performed in 96-well Costar high binding plates (#3922). The plates were coated first with 100 μL/well of 10 μg/mL neutravidin in TBS at 37° C. for 2 h, followed by 100 μL/well of 1 μg/mL 15-mer peptide substrate (biotinyl-amino-hexanoyl-EQEDEPEGDYFEWLE-amide) at 37° C. for another hour. The FAK assay mixture (total volume=100 μL/well) consisting of 20 mM HEPES, pH 7.2, 10 μM ATP, 5 mM MgCl2, 0.5 mM DTT, 0.1% BSA, and test compound (diluted in DMSO; 2.5% DMSO final in assay) was then added to the assay plate. Enzyme (10 ng/mL FAK, Invitrogen #PV3832) was added and the reaction was allowed to proceed at room temperature for 30 minutes. Detection of the phosphorylated product was performed by adding 100 μL/well of Eu—N1 labeled PY100 antibody (diluted 1:75000 in antibody dilution buffer). Samples were incubated at room temperature for 1 hour, followed by addition of 100 μL enhancement solution. Plates were agitated for 10 minutes and fluorescence of the resulting solution measured using the PerkinElmer EnVision™ 2102 (or 2104) multi-label plate reader.
as §1

[4] = biological target: T4, baculovirus-expressed ALK (Homo sapiens, UniProt Q9UM73); assay: ALK Kinase Assay (ELISA/TRF); conditions: 1 μM ATP (Km level)
T4 construct: host or cells: baculovirus expression system
T4 sequence (Q9UM73 19-1620): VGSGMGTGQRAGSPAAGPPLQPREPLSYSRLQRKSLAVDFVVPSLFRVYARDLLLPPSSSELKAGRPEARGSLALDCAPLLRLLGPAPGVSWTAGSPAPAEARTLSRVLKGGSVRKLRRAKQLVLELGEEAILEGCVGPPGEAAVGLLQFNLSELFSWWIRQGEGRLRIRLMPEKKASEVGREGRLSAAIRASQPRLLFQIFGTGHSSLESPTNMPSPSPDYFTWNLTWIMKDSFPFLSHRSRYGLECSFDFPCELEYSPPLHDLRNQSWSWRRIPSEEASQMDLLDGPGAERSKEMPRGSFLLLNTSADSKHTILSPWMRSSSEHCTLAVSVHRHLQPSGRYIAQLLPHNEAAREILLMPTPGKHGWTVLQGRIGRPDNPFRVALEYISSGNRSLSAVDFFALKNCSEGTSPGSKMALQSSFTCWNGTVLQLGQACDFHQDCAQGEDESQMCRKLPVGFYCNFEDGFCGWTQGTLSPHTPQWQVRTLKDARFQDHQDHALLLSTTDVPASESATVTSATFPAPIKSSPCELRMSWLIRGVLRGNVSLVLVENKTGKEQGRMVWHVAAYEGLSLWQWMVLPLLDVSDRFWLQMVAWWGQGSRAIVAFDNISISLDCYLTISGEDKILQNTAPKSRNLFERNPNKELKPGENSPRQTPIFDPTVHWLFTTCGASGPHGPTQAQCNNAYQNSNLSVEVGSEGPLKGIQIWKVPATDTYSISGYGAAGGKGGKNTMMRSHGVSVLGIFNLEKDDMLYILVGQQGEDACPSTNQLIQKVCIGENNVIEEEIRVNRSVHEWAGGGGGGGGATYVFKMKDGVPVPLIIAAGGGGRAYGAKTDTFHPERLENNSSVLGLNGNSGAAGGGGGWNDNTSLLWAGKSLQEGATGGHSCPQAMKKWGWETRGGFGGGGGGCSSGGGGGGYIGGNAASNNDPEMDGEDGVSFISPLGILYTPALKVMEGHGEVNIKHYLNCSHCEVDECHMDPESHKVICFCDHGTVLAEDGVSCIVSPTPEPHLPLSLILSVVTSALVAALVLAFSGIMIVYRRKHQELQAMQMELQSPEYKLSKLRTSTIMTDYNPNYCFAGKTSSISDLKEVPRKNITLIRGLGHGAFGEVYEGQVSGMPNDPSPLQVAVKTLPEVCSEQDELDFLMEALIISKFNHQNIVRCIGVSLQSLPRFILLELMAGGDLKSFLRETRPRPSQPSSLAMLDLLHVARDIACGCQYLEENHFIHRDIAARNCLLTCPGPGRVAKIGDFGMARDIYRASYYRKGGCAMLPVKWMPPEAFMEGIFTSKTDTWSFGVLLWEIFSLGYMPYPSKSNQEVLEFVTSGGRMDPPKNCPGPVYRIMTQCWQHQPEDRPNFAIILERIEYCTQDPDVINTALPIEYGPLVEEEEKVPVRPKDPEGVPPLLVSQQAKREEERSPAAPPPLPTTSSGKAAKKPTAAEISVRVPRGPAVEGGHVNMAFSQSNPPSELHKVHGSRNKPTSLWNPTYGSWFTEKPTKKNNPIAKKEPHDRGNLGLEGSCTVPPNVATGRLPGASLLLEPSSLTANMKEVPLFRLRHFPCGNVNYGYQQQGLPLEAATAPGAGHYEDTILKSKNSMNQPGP
Description: Briefly, each 96-well plate was coated with 100 μL/well of 10 μg/mL substrate (GST-PLC-γ) in Tris-buffered saline (TBS). […] The reaction was initiated by adding enzyme (30 ng/mL ALK) and was allowed to proceed at 37° C. for 15 minutes. Detection of the phosphorylated product was performed by adding 100 μL/well of Eu—N1 labeled PT66 antibody (Perkin Elmer #AD0041). […] Data analysis was performed using ActivityBase (IDBS, Guilford, UK). IC50 values were calculated by plotting percent inhibition versus log10 of the concentration of compound and fitting to the nonlinear regression sigmoidal dose-response (variable slope) equation in XLFit (IDBS, Guilford, UK).

[5] = average of two or more determinations, class symbols

Row | IC50 [1] [nM] | IC50 [2, 5] [nM] | IC50 [3] [nM] | IC50 ([2]; given as numeric bound) [nM] | IC50 [4, 5] [nM] | IC50 ([4]; given as numeric bound) [nM] | SMILES
1 | < 10 | 1000 to 10000 | 101 to 1000 |  |  |  | CN1CCN(c2ccc3cc2/C=C\c2cccc(c2)Nc2nc(ncc2Cl)N3)CC1 [Example 2, (14Z)-6-Chloro-17-(4-methylpiperazin-1-yl)-2,4,8,22-tetraazatetracyclo[14.3.1.1^3,7.1^9,13]docosa-1(20),3(22),4,6,9(21),10,12,14,16,18-decaene]
2 | < 10 | 101 to 1000 | < 10 |  |  |  | CN1CCN(c2ccc3cc2CCc2ccc(N(C)S(C)(=O)=O)c(c2)Nc2nc(ncc2Cl)N3)CC1 [Example 10, 6-Chloro-10-(2-methanesulfonyl-methyl-amino)-17-(4-methylpiperazin-1-yl)-2,4,8,22-tetraazatetracyclo[14.3.1.1^3,7.1^9,13]docosa-1(20),3(22),4,6,9(21),10,12,16,18-nonaene Trifluoroacetate (1:1)]
3 | < 10 | 101 to 1000 | 10 to 100 |  |  |  | Clc1cnc2nc1Nc1cccc(c1)CCc1cc(ccc1OCCN1CCCC1)N2 [Example 23, 6-Chloro-17-[2-(pyrrolidin-1-yl)ethoxy]-2,4,8,22-tetraazatetracyclo[14.3.1.1^3,7.1^9,13]docosa-1(20),3(22),4,6,9(21),10,12,16,18-nonaene Trifluoroacetate (1:1)]
4 | 10 to 100 |  | 101 to 1000 | > 3000 |  |  | COc1ccc2cc1Nc1nc(ncc1Cl)Nc1ccc(N3CCN(C)CC3)c(c1)/C=C\2 [Example 13, (14Z)-6-Chloro-10-methoxy-17-(4-methylpiperazin-1-yl)-2,4,8,22-tetraazatetracyclo[14.3.1.1^3,7.1^9,13]docosa-1(20),3(22),4,6,9(21),10,12,14,16,18-decaene]
5 | < 10 | 101 to 1000 | < 10 |  |  |  | CNC(=O)c1ccc2cc1Nc1nc(ncc1Cl)Nc1ccc(N3CCN(C)CC3)c(c1)CC2 [Example 17, 6-Chloro-10-(N-methylcarboxamido)-17-(4-methylpiperazin-1-yl)-2,4,8,22-tetraazatetracyclo[14.3.1.1^3,7.1^9,13]docosa-1(20),3(22),4,6,9(21),10,12,16,18-nonaene Trifluoroacetate (1:1)]
6 | 10 to 100 | 101 to 1000 | 101 to 1000 |  |  |  | COc1cc(N2CCN(C)CC2)c2cc1Nc1ncc(Cl)c(n1)Nc1cccc(c1)CC2 [Example 15, 6-Chloro-17-(4-methylpiperazin-1-yl)-19-methoxy-2,4,8,22-tetraazatetracyclo[14.3.1.1^3,7.1^9,13]docosa-1(20),3(22),4,6,9(21),10,12,16,18-nonaene Trifluoroacetate (1:1)]
7 | 10 to 100 |  | 10 to 100 |  | 101 to 1000 |  | CN1CCN(c2ccc3cc2/C=C\c2ccc(S(C)(=O)=O)c(c2)Nc2nc(ncc2Cl)N3)CC1 [Example 18, (14Z)-6-Chloro-10-(methanesulfonyl)-17-(4-methylpiperazin-1-yl)-2,4,8,22-tetraazatetracyclo[14.3.1.1^3,7.1^9,13]docosa-1(20),3(22),4,6,9(21),10,12,14,16,18-decaene Trifluoroacetate (1:1)]
8 | 101 to 1000 |  | > 10000 |  | > 10000 |  | O=C1Nc2cccc(c2)Nc2ncc(Cl)c(n2)Nc2cccc1c2 [Example 1, 6,13,19-Triaza-4-chloro-7,14^1,3-dibenzena-1^2,4-pyrimidinacyclodocosaph-12-one]
9 | < 10 | 101 to 1000 | 10 to 100 |  |  |  | COc1ccc2cc1Nc1nc(ncc1Cl)Nc1ccc(N3CCN(C)CC3)c(c1)CC2 [Example 14, 6-Chloro-10-methoxy-17-(4-methylpiperazin-1-yl)-2,4,8,22-tetraazatetracyclo[14.3.1.1^3,7.1^9,13]docosa-1(20),3(22),4,6,9(21),10,12,16,18-nonaene Trifluoroacetate (1:1)]
10 | 101 to 1000 |  | 1000 to 10000 |  |  | > 3000 | FC(F)(F)c1cnc2nc1Nc1cccc(c1)CCc1cccc(c1)N2 [Example 30, 6-Trifluoromethyl-2,4,8,22-tetraazatetracyclo[14.3.1.1^3,7.1^9,13]docosa-1(20),3(22),4,6,9(21),10,12,16,18-nonaene Trifluoroacetate (1:1)]
11 | 10 to 100 |  | 1000 to 10000 |  |  |  | CN1CCN(c2ccc3cc2[C@H](O)[C@H](O)c2cccc(c2)Nc2nc(ncc2Cl)N3)CC1 [Example 27, (14R,15S)-6-chloro-17-(4-methylpiperazin-1-yl)-2,4,8,22-tetraazatetracyclo[14.3.1.1^3,7.1^9,13]docosa-1(20),3(22),4,6,9(21),10,12,16,18-nonaene-14,15-diol]
12 | < 10 | 101 to 1000 | 101 to 1000 |  |  |  | CN1CCN(c2ccc3cc2CCc2cccc(c2)Nc2nc(ncc2Cl)N3)CC1 [Example 3, 6-Chloro-17-(4-methylpiperazin-1-yl)-2,4,8,22-tetraazatetracyclo[14.3.1.1^3,7.1^9,13]docosa-1(20),3(22),4,6,9(21),10,12,16,18-nonaene Trifluoroacetate (1:1)]
13 | 101 to 1000 | 10 to 100 | < 10 |  |  |  | COc1cc(N2CCN(C)CC2)c2cc1Nc1ncc(Cl)c(n1)Nc1cc(ccc1S(=O)(=O)C(C)C)CC2 [Example 6, 6-Chloro-10-(propane-2-sulfonyl)-17-(4-methylpiperazin-1-yl)-19-methoxy-2,4,8,22-tetraazatetracyclo[14.3.1.1^3,7.1^9,13]docosa-1(20),3(22),4,6,9(21),10,12,16,18-nonaene Trifluoroacetate (1:1)]
14 | 10 to 100 | 10 to 100 | < 10 |  |  |  | COc1cc(N2CCN(C)CC2)c2cc1Nc1ncc(Cl)c(n1)Nc1cc(ccc1N(C)S(C)(=O)=O)CC2 [Example 5, 6-Chloro-10-(2-methanesulfonyl-methyl-amino)-17-(4-methylpiperazin-1-yl)-19-methoxy-2,4,8,22-tetraazatetracyclo[14.3.1.1^3,7.1^9,13]docosa-1(20),3(22),4,6,9(21),10,12,16,18-nonaene Trifluoroacetate (1:1)]
